Source: patent US9163007B2, “5-substituted indazoles as kinase inhibitors” (AbbVie Inc., priority 2007, dated 2015)
Where two headings read alike, the source gives them in different places.

Assays:
[1] = tested on: phospho-MCM2 Ser53 in HCT-116 cells; assay: Phospho-MCM2 ELISA; format: cell-based; settings: Homo sapiens, treated 6 hours
Procedure: HCT-116 cells (20,000/well; 96-well format) were treated for 6 hours with increasing concentrations of compounds (0.01-10 μM in half-log increments). After removing the medium/inhibitor, the cells were frozen for 5 minutes and treated on ice with 20 μL of lysis buffer (Invitrogen #FNN0011) for 30 minutes. 80 μL of cold 2% BSA (in PBS) were then added to each well before transferring 80 μL to MCM2 antibody-coated plates (Bethyl #A300-122A, lot A300-122A-1). The plates were incubated overnight at 4° C., washed, and then incubated with the sandwich antibody (1:100 rabbit anti-human phospho-MCM2 Ser53; Bethyl #A300-756A, lot A300-756A-2) for 2 hours at room temperature. After another series of washes the samples are incubated for 1 hour with detection antibody (XSA-grade goat anti-rabbit-HRP, KPL #074-15-061, lot 50884, diluted to 2 μg/mL in 2% BSA). Plates were washed, developed using luminescence substrate (SuperSignal Pico for ELISA, Pierce #37069, Lot. HB101408), and read on a Molecular Devices M5 luminometer.

[2] = tested on: HCT-116 cells; assay: AlamarBlue Cell Viability Assays; format: cell-based; settings: Homo sapiens, treated 72 hours
Procedure: AlamarBlue Cell Viability Assays
HCT-116 cells (3,000/well; 96-well format) were treated for 72 hours with increasing concentrations of compounds (0.01-30 μM in half-log increments). The cells were then incubated in fresh media with 10% AlamarBlue reagent (Invitrogen #DAL1100). AlamarBlue reactions were incubated according to the manufacturer's instructions (approximately 4 hours) and then analyzed using an fmax fluorescence microplate reader (Molecular Devices) using excitation/emission wavelengths of 544/595 nm. Data were analyzed using SOFTmax PRO software provided by the manufacturer.

[3] = molecular target: Cdc7/Dbf4 (Homo sapiens (Human), UniProt O00311); assay: Cdc7 Inhibition Assay; format: biochemical;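 further: reaction mixtures incubated 30 min on streptavidin-coated plates, then quantified by scintillation counting, with inhibition curves fitted by non-linear regression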
Sequence of Cdc7/Dbf4 (O00311 whole entry): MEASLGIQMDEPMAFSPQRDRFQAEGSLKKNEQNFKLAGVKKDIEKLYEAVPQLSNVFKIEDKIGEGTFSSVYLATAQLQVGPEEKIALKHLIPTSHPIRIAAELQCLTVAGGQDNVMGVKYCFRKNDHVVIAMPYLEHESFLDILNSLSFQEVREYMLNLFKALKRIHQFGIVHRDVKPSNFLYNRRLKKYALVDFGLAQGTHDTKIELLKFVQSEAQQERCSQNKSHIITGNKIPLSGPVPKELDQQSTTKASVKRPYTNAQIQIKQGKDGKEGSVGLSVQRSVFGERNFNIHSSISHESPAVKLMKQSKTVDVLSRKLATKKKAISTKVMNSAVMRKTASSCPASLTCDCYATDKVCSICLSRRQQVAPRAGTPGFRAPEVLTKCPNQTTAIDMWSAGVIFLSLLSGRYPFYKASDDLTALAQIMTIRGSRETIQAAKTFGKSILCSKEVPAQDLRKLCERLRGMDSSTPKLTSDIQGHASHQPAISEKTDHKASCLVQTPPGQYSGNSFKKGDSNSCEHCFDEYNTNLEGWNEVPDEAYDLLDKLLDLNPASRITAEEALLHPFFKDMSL
Sequence of Cdc7/Dbf4 (Q9UBU7 whole entry partner): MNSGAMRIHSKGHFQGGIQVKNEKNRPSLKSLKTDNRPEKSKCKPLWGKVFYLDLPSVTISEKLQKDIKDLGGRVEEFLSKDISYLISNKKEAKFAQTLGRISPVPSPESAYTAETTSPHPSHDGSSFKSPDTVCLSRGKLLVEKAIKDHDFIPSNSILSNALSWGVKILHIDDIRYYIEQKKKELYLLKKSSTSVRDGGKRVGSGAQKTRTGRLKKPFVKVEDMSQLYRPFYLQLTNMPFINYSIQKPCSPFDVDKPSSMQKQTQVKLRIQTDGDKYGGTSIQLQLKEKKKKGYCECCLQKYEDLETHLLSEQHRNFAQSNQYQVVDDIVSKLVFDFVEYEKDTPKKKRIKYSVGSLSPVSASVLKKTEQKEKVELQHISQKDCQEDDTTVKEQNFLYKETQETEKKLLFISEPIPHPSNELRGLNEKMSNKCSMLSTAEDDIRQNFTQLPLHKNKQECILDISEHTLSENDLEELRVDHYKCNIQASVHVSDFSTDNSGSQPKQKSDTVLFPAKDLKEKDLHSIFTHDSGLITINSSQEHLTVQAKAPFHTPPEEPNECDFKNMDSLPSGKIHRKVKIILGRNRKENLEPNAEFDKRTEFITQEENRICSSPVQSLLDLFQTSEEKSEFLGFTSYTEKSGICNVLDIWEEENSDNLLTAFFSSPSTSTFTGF
Procedure: The reactions were incubated for 30 minutes on streptavidin-coated plates, washed, and quantified using a TopCount scintillation plate reader (Packard). IC50 values are determined via non-linear regression fitting of the data.

[4] = 11 data point, read-out: Ki (μM) 11 data point
[5] = 6 data point, read-out: Ki (μM) 6 data point

SMILES | EC50 [1] | EC50 [2] | Ki [3, 4] | Ki [3, 5]
Nc1n[nH]c2ccc(-c3nnn(Cc4ccccc4)c3CC3CCCCC3)cc12 [Example 403, 5-[1-benzyl-5-(cyclohexylmethyl)-1H-1,2,3-triazol-4-yl]-1H-indazol-3-amine] | > 10000 nM | 8 nM | 0.0082 µM | 
c1ccc(Cn2cc(-c3ccc4[nH]nc(-c5ccccc5)c4c3)nn2)cc1 [Example 61, 5-(1-benzyl-1H-1,2,3-triazol-4-yl)-3-phenyl-1H-indazole] | 8790 nM | 3980 nM | 0.0077 µM | 
NC(=O)N(c1ccccc1Cl)c1n[nH]c2ccc(-c3nnn(Cc4ccccc4)c3C3CC3)cc12 [Example 263, N-[5-(1-benzyl-5-cyclopropyl-1H-1,2,3-triazol-4-yl)-1H-indazol-3-yl]-N-(2-chlorophenyl)urea] | > 10000 nM | 1040 nM | 0.022 µM | 
CCCN(C(N)=O)c1n[nH]c2ccc(-c3cn(Cc4ccccc4)nn3)cc12 [Example 319, N-[5-(1-benzyl-1H-1,2,3-triazol-4-yl)-1H-indazol-3-yl]-N-propylurea] | > 10000 nM | 1560 nM | 0.068 µM | 
O=C(Nc1n[nH]c2ccc(-c3nnn(Cc4ccccc4)c3C3CC3)cc12)c1cccc(F)c1 [Example 205, N-[5-(1-benzyl-5-cyclopropyl-1H-1,2,3-triazol-4-yl)-1H-indazol-3-yl]-3-fluorobenzamide] | > 10000 nM | 595 nM | 0.0024 µM | 0.0009 µM
CCNC(=O)Nc1n[nH]c2ccc(-c3cn(Cc4ccccc4)nn3)cc12 [Example 322, N-[5-(1-benzyl-1H-1,2,3-triazol-4-yl)-1H-indazol-3-yl]-N′-ethylurea] | > 10000 nM | 1530 nM | 0.034 µM | 
Nc1n[nH]c2ccc(-c3nnn(Cc4ccccc4)c3-c3cccs3)cc12 [Example 406, 5-(1-benzyl-5-thien-2-yl-1H-1,2,3-triazol-4-yl)-1H-indazol-3-amine] | 671 nM | 1500 nM | 0.0005 µM | 
c1ccc(Cn2cc(-c3ccc4[nH]nc(-c5cccs5)c4c3)nn2)cc1 [Example 401, 5-(1-benzyl-1H-1,2,3-triazol-4-yl)-3-thien-2-yl-1H-indazole] | > 10000 nM | 6720 nM | 0.00492 µM | 
Nc1n[nH]c2ccc(-c3nnn(Cc4ccccc4)c3Cc3ccccc3)cc12 [Example 405, 5-(1,5-dibenzyl-1H-1,2,3-triazol-4-yl)-1H-indazol-3-amine] | 3100 nM | 6620 nM | 0.0011 µM | 
c1ccc(Cn2cc(-c3ccc4[nH]nc(-c5cn(Cc6ccccc6)nn5)c4c3)nn2)cc1 [Example 60, 3,5-bis(1-benzyl-1H-1,2,3-triazol-4-yl)-1H-indazole] | > 10000 nM | 143 nM | 0.0556 µM | 
O=C(Nc1nn(C(=O)c2ccccc2)c2ccc(-c3nnn(Cc4ccccc4)c3C3CC3)cc12)c1ccccc1 [Example 204, N-[1-benzoyl-5-(1-benzyl-5-cyclopropyl-1H-1,2,3-triazol-4-yl)-1H-indazol-3-yl]benzamide] | 6210 nM | 128 nM | 0.11 µM | 
CN(C)c1ccc(-c2c(-c3ccc4[nH]nc(N)c4c3)nnn2Cc2ccccc2)cc1 [Example 185, 5-{1-benzyl-5-[4-(dimethylamino)phenyl]-1H-1,2,3-triazol-4-yl}-1H-indazol-3-amine] | 5470 nM | 22600 nM | 0.0004 µM | 
Clc1ccc(CNc2n[nH]c3ccc(-c4nnn(Cc5ccccc5)c4C4CC4)cc23)cc1 [Example 227, 5-(1-benzyl-5-cyclopropyl-1H-1,2,3-triazol-4-yl)-N-(4-chlorobenzyl)-1H-indazol-3-amine] | > 10000 nM | 1400 nM | 0.015 µM | 
Fc1ccc(-c2c(-c3ccc4[nH]ncc4c3)nnn2CC2CCOCC2)cc1 [Example 167, 5-[5-(4-fluorophenyl)-1-(tetrahydro-2H-pyran-4-ylmethyl)-1H-1,2,3-triazol-4-yl]-1H-indazole] | 4310 nM | 18200 nM | 0.00105 µM | 

The next lines start with the values.

EC50 [1] | EC50 [2] | Ki [3, 4] | Ki [3, 5] | SMILES
> 10000 nM | 13500 nM | 0.02 µM |  | Nc1n[nH]c2ccc(-c3nnn(Cc4ccccc4)c3CC3CCCC3)cc12 [Example 409, 5-[1-benzyl-5-(cyclopentylmethyl)-1H-1,2,3-triazol-4-yl]-1H-indazol-3-amine]
5740 nM | 1450 nM | 0.00225 µM |  | Cc1ccccc1-c1c(-c2ccc3[nH]nc(C)c3c2)nnn1Cc1ccccc1 [Example 162, 5-[1-benzyl-5-(2-methylphenyl)-1H-1,2,3-triazol-4-yl]-3-methyl-1H-indazole]
> 10000 nM | 5480 nM | 0.035 µM |  | Nc1n[nH]c2ccc(-c3nnn(Cc4ccccc4)c3C3CC3)cc12 [Example 89, 5-(1-benzyl-5-cyclopropyl-1H-1,2,3-triazol-4-yl)-1H-indazol-3-amine]
5320 nM | 19200 nM | 0.0019 µM |  | Cn1cc(-c2c(-c3ccc4[nH]nc(N)c4c3)nnn2Cc2ccccc2)cn1 [Example 189, 5-[1-benzyl-5-(1-methyl-1H-pyrazol-4-yl)-1H-1,2,3-triazol-4-yl]-1H-indazol-3-amine]
4160 nM | 2900 nM | 0.0009 µM | 0.0008 µM | O=C(Nc1n[nH]c2ccc(-c3nnn(Cc4ccccc4)c3-c3ccccc3)cc12)c1ccccc1 [Example 198, N-[5-(1-benzyl-5-phenyl-1H-1,2,3-triazol-4-yl)-1H-indazol-3-yl]benzamide]
> 10000 nM | 2110 nM | 0.093 µM |  | Clc1ccccc1CNc1n[nH]c2ccc(-c3nnn(Cc4ccccc4)c3C3CC3)cc12 [Example 222, 5-(1-benzyl-5-cyclopropyl-1H-1,2,3-triazol-4-yl)-N-(2-chlorobenzyl)-1H-indazol-3-amine]
> 10000 nM | 3420 nM | 0.041 µM |  | NC(=O)N(Cc1ccccc1)c1n[nH]c2ccc(-c3nnn(Cc4ccccc4)c3C3CC3)cc12 [Example 262, N-benzyl-N-[5-(1-benzyl-5-cyclopropyl-1H-1,2,3-triazol-4-yl)-1H-indazol-3-yl]urea]
5950 nM | 11000 nM | 0.000601 µM |  | c1ccc(Cn2nnc(-c3ccc4[nH]ncc4c3)c2-c2ccccc2)cc1 [Example 87, 5-(1-benzyl-5-phenyl-1H-1,2,3-triazol-4-yl)-1H-indazole]
> 10000 nM | 422 nM | 0.015 µM |  | COCC(=O)Nc1n[nH]c2ccc(-c3cn(Cc4ccccc4)nn3)cc12 [Example 64, N-[5-(1-benzyl-1H-1,2,3-triazol-4-yl)-1H-indazol-3-yl]-2-methoxyacetamide]
